Measured values: US9981983B2, “Thienopyranones as kinase inhibitors” (SignalRx Pharmaceuticals, Inc., priority 2008, dated 2018)

Tested on: MCF7 breast cancer cells
Assay: Mammosphere cancer stem cell inhibition assay
Assay type: cell-based
Settings: 1 μM; first experiment
Procedure: A mammosphere cancer stem cell inhibition assay was set up using literature methods (T. M. Phillips et al. J. Natl. Cancer I. 2006, 98, 1777-1785, “Mammalian target of rapamycin contributes to the acquired apoptotic resistance of human mesothelioma multicellular spheroids”) using a subset of MCF7 breast cancer cells that posses the ability to evade anchorage independent apoptosis. Commercially available MCF7 breast cancer cells were cultured in MEM supplemented with 0.01 mg/mL of bovine insulin and 10% FBS at 37° C. in humidified atmosphere (5% CO2). Floating cells in the 2-day cultures were collected, washed, and resuspended in DMEM-F12 (50:50) supplemented with 0.4% BSA, 5 μg/mL bovine insulin, 20 ng/mL bFGF, and 10 ng/mL EGF. Cells were then passed through a […] sieve to remove any cell clusters and adjusted to a density of 10,000 cells/mL. Approximately 500 cells were plated in quadruplicate in a sterile poly-HEMA-treated 96-well plate. Cells were then treated with either control or test solutions consisting of the kinase inhibitor Lapatinib (1 μM), Cpd 28 (1 or 10 μM), Cpd 55 (1 or 10 μM), The numbers of mammospheres (clusters of cells numbering more than 4 or 5 per cluster) were then counted after 5-7 days.

SMILES | inhibition of mammosphere production versus control
O=C(Nc1ccc(-c2csc3c(=O)cc(N4CCOCC4)oc23)cc1)c1cccnc1 [Compound 55] | approximately 60%

Same assay, conditions: 1 μM; first experiment, control 38±4

SMILES | number of mammospheres
O=C(Nc1ccc(-c2csc3c(=O)cc(N4CCOCC4)oc23)cc1)c1cccnc1 [Compound 55] | 16±2 mammospheres

Same assay, conditions: 1 μM; separate experiment

SMILES | inhibition of mammosphere production versus control
CN1CCN(c2ncc(-c3csc4c(=O)cc(N5CCOCC5)oc34)cn2)CC1 [Compound 43] | ~53%

Same assay, conditions: 1 μM; separate experiment, control 32±6

SMILES | number of mammospheres
CN1CCN(c2ncc(-c3csc4c(=O)cc(N5CCOCC5)oc34)cn2)CC1 [Compound 43] | 18±6 mammospheres

Same assay, conditions: 10 μM; first experiment

SMILES | inhibition of mammosphere production versus control
O=C(Nc1ccc(-c2csc3c(=O)cc(N4CCOCC4)oc23)cc1)c1cccnc1 [Compound 55] | ~86%

Same assay, conditions: 10 μM; first experiment, control 38±4

SMILES | number of mammospheres
O=C(Nc1ccc(-c2csc3c(=O)cc(N4CCOCC4)oc23)cc1)c1cccnc1 [Compound 55] | 5±1 mammospheres

Same assay, conditions: 10 μM; separate experiment

SMILES | inhibition of mammosphere production versus control
CN1CCN(c2ncc(-c3csc4c(=O)cc(N5CCOCC5)oc34)cn2)CC1 [Compound 43] | ~58%

Same assay, conditions: 10 μM; separate experiment, control 32±6

SMILES | number of mammospheres
CN1CCN(c2ncc(-c3csc4c(=O)cc(N5CCOCC5)oc34)cn2)CC1 [Compound 43] | 16±6 mammospheres

Tested on: PC3 cells
Assay: PC3 prostate cancer cell proliferation (WST)
Assay type: cell-based
Settings: Homo sapiens, PC-3; 72 hours; read-out: IC50 PC3 Proliferation
Procedure: PC3 cells were obtained from the American Type Culture Collection (ATCC, Manassas, Va., Cat.# CRL-1435) Two thousand cells from the prostate cancer line PC3 were placed in 50 μL of complete RPMI 1640 media (Invitrogen, Carlsbad, Calif., Cat.#22400-105) with 10% fetal bovine serum (Invitrogen, Carlsbad, Calif., Cat.#10438-026) into each well of 96 well cell culture plates in a hexaplicate sampling pattern. A 50 μL aliquot of test compound (prepared from stock test compounds in DMSO diluted into media) was added to the appropriate well such that the final concentrations of test compound were 200, 40, 8, 1.6, 0.32, 0.064, 0.0128, 0.00256, and 0 μM and the final DMSO concentration was less than or equal to 0.2%.
The plates were incubated for 72 hours 37° C. in an atmosphere of 5% CO2. At the end of this time a 10 μL aliquot of WST solution (Roche Applied Science, Mannheim, Germany) was added into each of the wells. Cells were exposed to the WST solution for 4 hours. A SpectraMax Plus spectrophotometric plate reader (Molecular Devices, Sunnydale, Calif.) was then used to measure the optical density at 450 nm (OD450 nm). Sigmoidal curves were drawn for the dose responses and IC50 values were calculated using the software package GraphPad Prism4 (GraphPad Software, Inc., San Diego, Calif.).

IC50 | SMILES
2.7 to 5.59 µM | O=c1cc(N2CCOCC2)oc2c(-c3ccc4cc[nH]c4c3)csc12 [Compound 35]
1.05 to 1.5 µM | O=C(Nc1ccc(-c2csc3c(=O)cc(N4CCOCC4)oc23)cc1)c1cccnc1 [Compound 55]
3.31 µM | O=c1cc(N2CCOCC2)oc2c(C#Cc3cccc(F)c3)csc12 [Compound 39]
4.76 µM | O=C(NCc1ccccc1)c1ccc(-c2csc3c(=O)cc(N4CCOCC4)oc23)cc1 [Compound 50, N-benzyl-4-(5-morpholino-7-oxo-7H-thieno[3,2-b]pyran-3-yl)benzamide]
81.9 µM | COc1cc(-c2csc3c(=O)cc(N4CCOCC4)oc23)ccc1N [Compound 95]
17.5 µM | O=C(Nc1ccncc1)c1ccc(-c2csc3c(=O)cc(N4CCOCC4)oc23)cc1 [Compound 59]
774 µM | O=c1cc(N2CCOCC2)oc2c(-c3ccc(C(F)(F)F)cc3)csc12 [Compound 20]
6.91 µM | O=C(Nc1ccccn1)c1cccc(-c2csc3c(=O)cc(N4CCOCC4)oc23)c1 [Compound 66]
9.35 µM | CN1CCN(c2ncc(-c3csc4c(=O)cc(N5CCOCC5)oc34)cn2)CC1 [Compound 43]
5.9 µM | O=c1cc(N2CCOCC2)oc2c(-c3ccco3)csc12 [Compound 4]
29 µM | O=c1cc(N2CCOCC2)oc2c(-c3ccc(Cl)cc3)csc12 [Compound 17, 3-(4-chlorophenyl)-5-morpholino-7H-thieno[3,2-b]pyran-7-one]
1.8 µM | COc1cc(C#Cc2csc3c(=O)cc(N4CCOCC4)oc23)cc(OC)c1 [Compound 40]
8.55 µM | O=c1cc(N2CCOCC2)oc2c(-c3cc4ccccc4[nH]3)csc12 [Compound 12]
4.36 µM | O=c1cc(N2CCOCC2)oc2c(-c3cccs3)csc12 [Compound 14]
3.69 µM | O=c1cc(N2CCOCC2)oc2c(C#Cc3ccccc3)csc12 [Compound 31, 5-morpholino-3-(phenylethynyl)-7H-thieno[3,2-b]pyran-7-one]
2.5 µM | CN(C)c1ccc(C#Cc2csc3c(=O)cc(N4CCOCC4)oc23)cc1 [Compound 37]
17.9 µM | O=C(Nc1ccncc1)c1cccc(-c2csc3c(=O)cc(N4CCOCC4)oc23)c1 [Compound 64]
8.13 µM | O=c1cc(N2CCOCC2)oc2c(-c3ccc4[nH]ccc4c3)csc12 [Compound 19]
4.76 µM | COc1cccc(-c2csc3c(=O)cc(N4CCOCC4)oc23)c1 [Compound 29]
1.05 µM | CN1CCOc2cc(-c3csc4c(=O)cc(N5CCOCC5)oc34)ccc21 [Compound 22]
4.39 µM | COC(=O)c1ccc(-c2csc3c(=O)cc(N4CCOCC4)oc23)cc1 [Compound 44]

IC50 | SMILES
4.48 µM | Cc1ccc(-c2csc3c(=O)cc(N4CCOCC4)oc23)cc1 [Compound 15]
12.7 µM | CN(C)c1ccc(NC(=O)c2cccc(-c3csc4c(=O)cc(N5CCOCC5)oc34)c2)cc1 [Compound 65]
18.5 µM | O=c1cc(N2CCOCC2)oc2c(-c3ccncc3)csc12 [Compound 2]
6.03 µM | Cc1cccc(-c2csc3c(=O)cc(N4CCOCC4)oc23)c1 [Compound 16]
2 µM | O=C(Nc1ccc(-c2csc3c(=O)cc(N4CCOCC4)oc23)cc1)c1ccccc1 [Compound 34]
1.74 µM | O=c1cc(N2CCOCC2)oc2c(-c3ccc4c(c3)OCO4)csc12 [Compound 7]
3.18 µM | CN(C)c1ccc(C(=O)Nc2cccc(-c3csc4c(=O)cc(N5CCOCC5)oc34)c2)cc1 [Compound 49]
22 µM | O=C(NCc1ccc(Cl)cc1)c1csc2c(=O)cc(N3CCOCC3)oc12 [Compound 88]
7.84 µM | O=C(NCCN1CCOCC1)c1cccc(-c2csc3c(=O)cc(N4CCOCC4)oc23)c1 [Compound 42]
37.6 µM | O=c1cc(N2CCOCC2)oc2c(-c3ccc(Cl)c(Cl)c3)csc12 [Compound 18]
1.82 µM | COc1ccc(-c2csc3c(=O)cc(N4CCOCC4)oc23)cc1 [Compound 8]
21.8 µM | O=c1cc(N2CCOCC2)oc2c(-c3ccc(Br)cc3)csc12 [Compound 101]
5 µM | O=C(Nc1ccccn1)c1ccc(-c2csc3c(=O)cc(N4CCOCC4)oc23)cc1 [Compound 61]
19.9 µM | O=C(NCCN1CCOCC1)c1csc2c(=O)cc(N3CCOCC3)oc12 [Compound 90]
7.35 µM | O=c1cc(N2CCOCC2)oc2c(C#Cc3ccsc3)csc12 [Compound 23]
28.2 µM | O=c1cc(N2CCOCC2)oc2c(C#CCO)csc12 [Compound 24]
16.7 µM | O=C(Nc1cccnc1)c1ccc(-c2csc3c(=O)cc(N4CCOCC4)oc23)cc1 [Compound 58]
2.07 µM | CNc1ccc(-c2csc3c(=O)cc(N4CCOCC4)oc23)cc1 [Compound 41]
95.8 µM | O=c1cc(C2CCOCC2)oc2c(-c3ccccc3)cccc12 [Compound 67, 8-Phenyl-2-(tetrahydro-2H-pyran-4-yl)-4H-chromen-4-one]
34.8 µM | S=c1cc(N2CCOCC2)oc2c(-c3ccccc3)cccc12 [Compound 68, 2-morpholino-8-phenyl-4H-chromene-4-thione]
4.67 µM | COC(=O)c1cccc(-c2csc3c(=O)cc(N4CCOCC4)oc23)c1 [Compound 45]

IC50 | SMILES
62.1 µM | O=C(Nc1cccc(-c2csc3c(=O)cc(N4CCOCC4)oc23)c1)c1cccnc1 [Compound 46]
10.9 µM | O=c1cc(N2CCOCC2)oc2c(-c3cccnc3)csc12 [Compound 3, 5-morpholino-3-(pyridin-3-yl)-7H-thieno[3,2-b]pyran-7-one]
113 µM | O=C(NCc1ccccc1)c1csc2c(=O)cc(N3CCOCC3)oc12 [Compound 53]
2.69 µM | CN(C(=O)OC(C)(C)C)c1ccc(-c2csc3c(=O)cc(N4CCOCC4)oc23)cc1 [Compound 36]
6.28 µM | O=c1cc(N2CCOCC2)oc2c(-c3cccc(C(F)(F)F)c3)csc12 [Compound 92]
3.45 µM | O=c1cc(N2CCOCC2)oc2c(-c3cccc(Cl)c3)csc12 [Compound 85, 3-(3-chlorophenyl)-5-morpholino-7H-thieno[3,2-b]pyran-7-one]
23.8 µM | O=C(Nc1ccccc1)c1csc2c(=O)cc(N3CCOCC3)oc12 [Compound 51, 5-morpholino-7-oxo-N-phenyl-7H-thieno[3,2-b]pyran-3-carboxamide]
7.84 µM | O=C(NCc1ccccc1)c1cccc(-c2csc3c(=O)cc(N4CCOCC4)oc23)c1 [Compound 63]
9.26 µM | O=c1cc(N2CCOCC2)oc2c(-c3ccoc3)csc12 [Compound 27]
5.6 µM | O=c1cc(N2CCOCC2)oc2c(-c3ccsc3)csc12 [Compound 26]
34.8 µM | COC(=O)c1scc(-c2csc3c(=O)cc(N4CCOCC4)oc23)c1O [Compound 21, methyl 3-hydroxy-4-(5-morpholino-7-oxo-7H-thieno[3,2-b]pyran-3-yl)thiophene-2-carboxylate]
129 µM | O=C(O)c1ccc(-c2csc3c(=O)cc(N4CCOCC4)oc23)cc1 [Compound 100]
16.6 µM | O=c1cc(N2CCOCC2)oc2c(-c3cccc(O)c3)csc12 [Compound 99]
9.01 µM | O=c1cc(N2CCOCC2)oc2c(-c3ccc(Cl)nc3)csc12 [Compound 32]
157 µM | CCN(CC)C(=O)c1csc2c(=O)cc(N3CCOCC3)oc12 [Compound 52]
24.8 µM | Nc1cccc(C#Cc2csc3c(=O)cc(N4CCOCC4)oc23)c1 [Compound 96]
6.12 µM | O=c1cc(N2CCOCC2)oc2c(-c3ccc(O)cc3)csc12 [Compound 98]
6.14 to 9.43 µM | O=c1cc(N2CCOCC2)oc2c(-c3ccc(O)c(Cl)c3)csc12 [Compound 93]
20.2 µM | O=c1cc(N2CCOCC2)oc2c(Cc3ccccc3)csc12 [Compound 1]
